In patent US20070265164A1, “Active Substances for Increasing Pathogenic Defense in Plants and Methods for the Detection Thereof” (Bayer Cropscience GmbH, priority 2004, published 2007):

Assays:
Format in all cases: in vivo
Set-up in all cases: fold induction: dose or concentration left out as unconfirmed
[1] = test system: Contig1736_at, Lipoxygenase 1 (EC 1.13.11.12); assay: GEP, barley DNA chip, probe set 1.10; conditions: Hordeum vulgare, read-out: Expression value, 1.10 Contig1736_at; for fold induction at 150 g/ha: 6 h
Description: (§1) Barley plants (cv. Baronesse) were grown in compost-filled pots (diameter: 10 cm) for 10 days in a controlled-environment cabinet under defined light, humidity and temperature conditions (white light, 70% atmospheric humidity, 24° C.). At the time of spray application, the seedlings were approximately 15 cm in size. The test substances selected in this example were molecules which differ markedly in their structure and which have a well documented pronounced safener effect, and other molecules which are known from the literature to have an effect on plant stress and pathogen tolerance (Table 1). The substances were prepared as stock solutions in DMSO (dimethyl sulfoxide) at c=10 mg/ml). This was used for preparing dilutions in water supplemented with 0.2% Agrotin (comprises polyvinyl alcohol, silicones, polysaccharides and pH regulators, manufacturer: Bayer CropScience AG, Monheim, Germany), as wetter, to give the application rates shown in the table. The amount of liquid for the spray application was 800 μl per pot, corresponding to 800 l/ha. For each 800 μl of spray mixture, 16 μl of EC premix: diacetone alcohol=1:6 were additionally added as formulation auxiliaries. The substances listed in Table 1 were applied to the leaves by means of a pneumatic spray pistol. Each substance was sprayed as 2 dosages, and all experiments were carried out as replicates (2 pots per substance). Sprayings with blank formulation without active ingredient were carried out as controls. After 6 hours, the leaves were harvested, frozen in liquid nitrogen and stored at −80° C. until further use. The labeled RNA probes for the DNA chip hybridization were prepared as described in the protocols (Expression Analysis, Technical Manual) from Affymetrix (Affymetrix Inc., 3380 Central Expressway, Santa Clara, Calif., USA). First, total RNA was isolated from in each case 500 mg of the harvested leaves. In each case 10 μg of total RNA was used for the first-strand and second-strand cDNA synthesis. The cDNA was amplified with T7 polymerase and simultaneously labeled with biotin-UTP. In each case, 20 μg of this biotinylated cDNA was employed for the hybridization of the barley genome array (Gene Chip Barleyl, order No.: 511012) from Affymetrix. This DNA microarray comprises DNA sequences of 22 840 genes which are composed of a total of 400 000 EST sequences. Thereafter, the DNA microarrays were washed in the Affymetrix Fluidics Station, stained with streptavidin/phycoerythrin (Molecular Probes, P/N S-866) and scanned with the matching Agilent Laser Scanner (Agilent Gene Array Scanner). The fluorescent data obtained were analyzed with the software Microarray Suite 5 from Affymetrix. After the quality had been checked, all DNA chip analyses were stored in a database. To determine the relative expression values for genes (induction factors, repression factors), test and control chips were compared with each other, and the scoring function set by the Affymetrix software was used as the basis. The 2 biological replications of one experiment were compared in each case with 2 control chips (blank formulation), and the 4 expression values obtained for each gene were used for calculating the median. These medians are shown in the results tables as induction factors. Similarity comparisons of expression profiles from different experiments and cluster analyses were carried out using the software GeneMaths 1.5 from Applied Maths (Applied Maths, Keistraat 120, 9830 Sint-Martens-Latem, Belgium).
(§2) Gene groups from specific metabolic pathways and signal transduction chains were put together by key word search in the annotations, of the genes, which were also provided by Affymetrix, and by Blast analyses (homology comparisons) of the DNA target sequences, i.e. of the positive sequence (identified on the basis of a modified expression profile) identified on the DNA chip, using gene sequences from other organisms, preferably plant organisms, with characterized functions. […]

[2] = test system: HI02E21u_s_at, Lipoxygenase (EC 1.13.11.12); assay: GEP, barley DNA chip, probe set 1.2; conditions: Hordeum vulgare, topical, read-out: Expression value, 1.2 HI02E21u_s_at; for fold induction at 150 g/ha: 6 h
Description: as §1, §2

[3] = test system: Contig3097_at, Allene oxide synthase; assay: GEP, barley DNA chip, probe set 1.3; conditions: Hordeum vulgare, topical, read-out: Expression value, 1.3 Contig3097_at; for fold induction at 150 g/ha: 6 h
Description: as §1, §2

[4] = test system: Contig2088_s_at, Bowman-Birk type trypsin inhibitor; assay: GEP, barley DNA chip, probe set 2.1; conditions: Hordeum vulgare, topical, read-out: Expression value, 2.1 Contig2088_s_at; for fold induction at 150 g/ha: 6 h
Description: as §1, §2

[5] = test system: Contig2118_at, Peroxidase (EC 1.11.1.7), pathogen-induced; assay: GEP, barley DNA chip, probe set 4.1; conditions: Hordeum vulgare, topical, read-out: Expression value, 4.1 Contig2118_at; for fold induction at 150 g/ha: 6 h
Description: as §1, §2

[6] = test system: Contig8905_at, Xytanase inhibitor protein; assay: GEP, barley DNA chip, probe set 3.1; conditions: Hordeum vulgare, topical, read-out: Expression value, 3.1 Contig8905_at; for fold induction at 150 g/ha: 6 h
Description: as §1, §2

[7] = test system: Contig2631_at, Lipase-like Protein (jasmonic acid biosynthesis gene); assay: Gene expression profiling (GEP), barley DNA chip, probe set 1.1; conditions: Hordeum vulgare; for fold induction at 150 g/ha: 6 h, read-out: Expression value, 1.1 Contig2631_at
Description: as §1, §2

[8] = test system: Contig88_x_at, Putative proteinase inhibitor; assay: GEP, barley DNA chip, probe set 2.3; conditions: Hordeum vulgare, topical, read-out: Expression value, 2.3 Contig88_x_at; for fold induction at 150 g/ha: 6 h
Description: as §1, §2

[9] = test system: Contig6611_at, Similar to lipases; assay: GEP, barley DNA chip, probe set 1.12; conditions: Hordeum vulgare, topical, read-out: Expression value, 1.12 Contig6611_at; for fold induction at 150 g/ha: 6 h
Description: as §1, §2

[10] = test system: Contig15_a_at, GDSL-motif lipase/hydrolase-like protein; assay: GEP, barley DNA chip, probe set 1.9; conditions: Hordeum vulgare, topical, read-out: Expression value, 1.9 Contig15_a_at; for fold induction at 150 g/ha: 6 h
Description: as §1, §2

[11] = test system: Contig9556_at, 12-oxophytodienoate reductase 3; assay: GEP, barley DNA chip, probe set 1.8; conditions: Hordeum vulgare, topical, read-out: Expression value, 1.8 Contig9556_at; for fold induction at 150 g/ha: 6 h
Description: as §1, §2

[12] = test system: Contig2305_at, Methyljasmonate inducible lipoxygenase; assay: GEP, barley DNA chip, probe set 1.14; conditions: Hordeum vulgare, topical, read-out: Expression value, 1.14 Contig2305_at; for fold induction at 150 g/ha: 6 h
Description: as §1, §2

[13] = test system: Contig10030_at, Putative lipase homolog; assay: GEP, barley DNA chip, probe set 1.13; conditions: Hordeum vulgare, topical, read-out: Expression value, 1.13 Contig10030_at; for fold induction at 150 g/ha: 6 h
Description: as §1, §2

[14] = barley leaves 6 h after spray application, rates of Table 1 (S7 500), median induction factor vs control

Q: What does the source list for CCOC(=O)C1=NOC(c2ccccc2)(c2ccccc2)C1 [S3, Isoxadifen-ethyl]?
A: fold induction at 150 g/ha [1]: 2.91; fold induction at 150 g/ha [2]: 40.8; fold induction at 150 g/ha [3]: 8.51; fold induction at 150 g/ha [4]: 4.26; fold induction at 150 g/ha [5]: 4.86; fold induction at 150 g/ha [6]: 2.99; fold induction at 150 g/ha [7]: 97.7; fold induction at 150 g/ha [8]: 4.53; fold induction at 150 g/ha [9]: 2.41; fold induction at 150 g/ha [10]: 2.97; fold induction at 150 g/ha [11]: 3.03; fold induction at 150 g/ha [12]: 2.14; fold induction at 150 g/ha [13]: 2.25

Q: For O=C(O)c1cc(Cl)nc(Cl)c1 [S9], which fold induction at 150 g/ha [1] is on record?
A: 1

Q: And the fold induction at 150 g/ha [2]?
A: 3.03

Q: And the fold induction at 150 g/ha [3]?
A: 1

Q: What about the fold induction at 150 g/ha [4] of the same compound?
A: 2.36

Q: And the fold induction at 150 g/ha [5]?
A: 1

Q: What about the fold induction at 150 g/ha [6] of the same compound?
A: 2.53

Q: What about the fold induction at 150 g/ha [7] of the same compound?
A: 1

Q: And the fold induction at 150 g/ha [8]?
A: 4.59

Q: And the fold induction at 150 g/ha [9]?
A: 2

Q: What about the fold induction at 150 g/ha [10] of the same compound?
A: 1

Q: And the fold induction at 150 g/ha [11]?
A: 1

Q: And the fold induction at 150 g/ha [12]?
A: 12.6

Q: And the fold induction at 150 g/ha [13]?
A: 1

Q: How did the fold induction [1, 14] turn out when CSC(=O)c1cccc2nnsc12 [S8, Acibenzolar-S-methyl] was run?
A: 1

Q: And the fold induction [2, 14]?
A: 1

Q: What about the fold induction [3, 14] of the same compound?
A: 2.11

Q: What about the fold induction [4, 14] of the same compound?
A: 7.36

Q: What about the fold induction [5, 14] of the same compound?
A: 1

Q: What about the fold induction [6, 14] of the same compound?
A: 1

Q: What about the fold induction [7, 14] of the same compound?
A: 1

Q: And the fold induction [8, 14]?
A: 22.9

Q: What about the fold induction [9, 14] of the same compound?
A: 3.61

Q: And the fold induction [10, 14]?
A: 1

Q: What about the fold induction [11, 14] of the same compound?
A: 1

Q: What about the fold induction [12, 14] of the same compound?
A: 81.6

Q: And the fold induction [13, 14]?
A: 1
